Laboratory results taken from patent US9723840B2 (SYNGENTA PARTICIPATIONS AG, priority 2013, dated 2017).

Columns and labels:
Format in all cases: in vivo
Amaranthus retroflexus [1] = assay: Pre-emergence herbicidal activity, AMARE; design: key: 5=total damage to plant; 0=no damage to plant; conditions: 1000 g/Ha, pre-emergence spray, evaluated after 13 days, scale 0-5
Procedure: (§1) Seeds of a variety of test species were sown in standard soil in pots. After cultivation for one day (pre-emergence) under controlled conditions in a glasshouse (at 24/16° C., day/night; 14 hours light; 65% humidity), the plants were sprayed with an aqueous spray solution derived from the formulation of the technical active ingredient in acetone/water (50:50) solution containing 0.5% Tween 20 (polyoxyethelyene sorbitan monolaurate, CAS RN 9005-64-5). The test plants were then grown in a glasshouse under controlled conditions (at 24/16° C., day/night; 14 hours light; 65% humidity) and watered twice daily. After 13 days, the test was evaluated (5=total damage to plant; 0=no damage to plant).

Abutilon theophrasti [2] = assay: Pre-emergence herbicidal activity, ABUTH; design: key: 5=total damage to plant; 0=no damage to plant; conditions: 1000 g/Ha, pre-emergence spray, evaluated after 13 days, scale 0-5
Procedure: as §1

Setaria faberi [3] = assay: Pre-emergence herbicidal activity, SETFA; design: key: 5=total damage to plant; 0=no damage to plant; conditions: 1000 g/Ha, pre-emergence spray, evaluated after 13 days, scale 0-5
Procedure: as §1

Echinochloa crus-galli [4] = assay: Pre-emergence herbicidal activity, ECHCG; design: key: 5=total damage to plant; 0=no damage to plant; conditions: 1000 g/Ha, pre-emergence spray, evaluated after 13 days, scale 0-5
Procedure: as §1

Alopecurus myosuroides [5] = assay: Pre-emergence herbicidal activity, ALOMY; conditions: 1000 g/Ha, pre-emergence spray, evaluated after 13 days, scale 0-5
Procedure: as §1

Zea mays [6] = assay: Pre-emergence herbicidal activity, ZEAMX; conditions: 1000 g/Ha, pre-emergence spray, evaluated after 13 days, scale 0-5
Procedure: as §1

Amaranthus retroflexus [7] = assay: Post-emergence herbicidal activity, AMARE; design: key: 5=total damage to plant; 0=no damage to plant; conditions: 1000 g/Ha, post-emergence spray (8 days cultivation), evaluated after 13 days, scale 0-5
Procedure: (§2) Seeds of a variety of test species were sown in standard soil in pots. After 8 days cultivation (post-emergence) under controlled conditions in a glasshouse (at 24/16° C., day/night; 14 hours light; 65% humidity), the plants were sprayed with an aqueous spray solution derived from the formulation of the technical active ingredient in acetone/water (50:50) solution containing 0.5% Tween 20 (polyoxyethelyene sorbitan monolaurate, CAS RN 9005-64-5). The test plants were then grown in a glasshouse under controlled conditions (at 24/16° C., day/night; 14 hours light; 65% humidity) and watered twice daily. After 13 days, the test was evaluated (5=total damage to plant; 0=no damage to plant).

Abutilon theophrasti [8] = assay: Post-emergence herbicidal activity, ABUTH; design: key: 5=total damage to plant; 0=no damage to plant; conditions: 1000 g/Ha, post-emergence spray (8 days cultivation), evaluated after 13 days, scale 0-5
Procedure: as §2

Alopecurus myosuroides [9] = assay: Post-emergence herbicidal activity, ALOMY; design: key: 5=total damage to plant; 0=no damage to plant; conditions: 1000 g/Ha, post-emergence spray (8 days cultivation), evaluated after 13 days, scale 0-5
Procedure: as §2

Echinochloa crus-galli [10] = assay: Post-emergence herbicidal activity, ECHCG; design: key: 5=total damage to plant; 0=no damage to plant; conditions: 1000 g/Ha, post-emergence spray (8 days cultivation), evaluated after 13 days, scale 0-5
Procedure: as §2

Zea mays [11] = assay: Post-emergence herbicidal activity, ZEAMX; design: key: 5=total damage to plant; 0=no damage to plant; conditions: 1000 g/Ha, post-emergence spray (8 days cultivation), evaluated after 13 days, scale 0-5
Procedure: as §2

Setaria faberi [12] = assay: Post-emergence herbicidal activity, SETFA; design: key: 5=total damage to plant; 0=no damage to plant; conditions: 1000 g/Ha, post-emergence spray (8 days cultivation), evaluated after 13 days, scale 0-5
Procedure: as §2

| Structure (SMILES) | AMARE damage score, application pre-emergence (Amaranthus retroflexus [1]) | ABUTH damage score, application pre-emergence (Abutilon theophrasti [2]) | SETFA damage score, application pre-emergence (Setaria faberi [3]) | ECHCG damage score, application pre-emergence (Echinochloa crus-galli [4]) | ALOMY damage score, application pre-emergence (Alopecurus myosuroides [5]) | ZEAMX damage score, application pre-emergence (Zea mays [6]) | AMARE damage score, application post-emergence (Amaranthus retroflexus [7]) | ABUTH damage score, application post-emergence (Abutilon theophrasti [8]) | ALOMY damage score, application post-emergence (Alopecurus myosuroides [9]) | ECHCG damage score, application post-emergence (Echinochloa crus-galli [10]) | ZEAMX damage score, application post-emergence (Zea mays [11]) | SETFA damage score, application post-emergence (Setaria faberi [12]) |
| --- | --- | --- | --- | --- | --- | --- | --- | --- | --- | --- | --- | --- |
| CCOC1C(O)N(c2cc(C(C)(C)F)c(Cl)nn2)C(=O)N1C (centres unmarked) [Example A9, 1-[6-chloro-5-(1-fluoro-1-methyl-ethyl)pyridazin-3-yl]-4-ethoxy-5-hydroxy-3-methyl-imidazolidin-2-one] | 5 | 5 | 5 | 5 | 4 | 3 | 5 | 5 | 5 | 5 | 5 | 5 |
| CC1C(O)N(c2cc(C(C)(C)F)c(Cl)nn2)C(=O)N1C (centres unmarked) [Example A2, 1-[6-chloro-5-(1-fluoro-1-methyl-ethyl)pyridazin-3-yl]-5-hydroxy-3,4-dimethyl-imidazolidin-2-one] | 5 | 5 | 5 | 4 | 4 | 3 | 5 | 5 | 4 | 5 | 5 | 5 |
| CN1CC(O)N(c2cc(C(F)(F)F)cnn2)C1=O (centres unmarked) [Example A7, 4-hydroxy-1-methyl-3-[5-(trifluoromethyl)pyridazin-3-yl]imidazolidin-2-one] | 5 | 5 | 5 | 5 | 4 | 2 | 5 | 5 | 5 | 5 | 5 | 5 |
| CN1CC(O)N(c2ccc(C(=O)NC(C)(C)C)nn2)C1=O (centres unmarked) [Example A25] | 5 | 5 | 5 | 5 |  | 2 | 5 | 5 |  | 5 | 3 | 5 |
| CC1C(O)N(c2cc(C(F)(F)F)c(Cl)nn2)C(=O)N1C (centres unmarked) [Example A16] | 5 | 5 | 3 | 5 |  | 3 | 5 | 5 |  | 5 | 3 | 5 |
| CN1CC(O)N(c2cc(C(C)(C)F)c(-c3ccccc3)nn2)C1=O (centres unmarked) [Example A4] | 5 |  | 5 | 5 | 4 |  | 5 | 5 | 5 | 5 | 5 | 5 |
| CN1CC(O)N(c2cc(C(C)(F)F)cnn2)C1=O (centres unmarked) [Example A20] | 5 | 5 | 5 | 5 |  | 3 | 5 | 5 |  | 5 | 5 | 5 |
| CN1C(=O)N(c2cc(C(F)(F)F)c(Cl)nn2)C(O)C1O (centres unmarked) [Example A22] | 5 | 5 | 4 | 2 |  | 1 | 5 | 5 |  | 5 | 3 | 5 |
| CN1CC(O)N(c2cc(C(C)(C)F)c(Cl)nn2)C1=O (centres unmarked) [Example A1] | 5 | 5 | 5 | 5 | 4 | 4 | 5 | 5 | 5 | 5 | 5 | 5 |
| CN1CC(O)N(c2cc(C(C)(C)F)cnn2)C1=O (centres unmarked) [Example A18] | 5 | 5 | 4 | 5 |  | 2 | 5 | 5 |  | 5 | 4 | 5 |
| COC1C(O)N(c2cc(C(C)(C)F)c(Cl)nn2)C(=O)N1C (centres unmarked) [Example A8] | 5 | 5 | 5 | 5 | 4 | 3 | 5 | 5 | 4 | 5 | 4 | 5 |
| CC1C(O)N(c2cc(C(F)(F)F)cnn2)C(=O)N1C (centres unmarked) [Example A21] | 5 | 5 | 5 | 5 |  | 3 | 5 | 5 |  | 5 | 5 | 5 |
| CCOC1C(O)N(c2cc(C(F)(F)F)c(Cl)nn2)C(=O)N1C (centres unmarked) [Example A23] | 5 | 5 | 5 | 5 |  | 2 | 5 | 5 |  | 5 | 3 | 5 |
| CCOC1C(O)N(c2cc(C(F)(F)F)cnn2)C(=O)N1C (centres unmarked) [Example A24] | 5 | 5 | 5 | 4 |  | 2 |  |  |  | 5 |  |  |
